Measured values: patent publication US20230086702A1, “SUBSTITUTED 2-AMINO-PYRAZOLYL-[1,2,4]TRIAZOLO[1,5A]PYRIDINE DERIVATIVES AND USE THEREOF” (The Johns Hopkins University, priority 2019, published 2023)

How the values were obtained:
[1] = biological target: T1, DLK (Homo sapiens, UniProt Q12852); experiment: DLK biochemical assay (TR-FRET, MKK7 phosphorylation); conditions: DLK catalytic domain, MKK7 substrate, 60 μM ATP
T1 construct: 10 nM DLK, catalytic domain, Carna Biosiences; purchased Carna Biosciences ('Carna Biosiences' [sic])
T1 sequence (Q12852 125-366 limits assumed): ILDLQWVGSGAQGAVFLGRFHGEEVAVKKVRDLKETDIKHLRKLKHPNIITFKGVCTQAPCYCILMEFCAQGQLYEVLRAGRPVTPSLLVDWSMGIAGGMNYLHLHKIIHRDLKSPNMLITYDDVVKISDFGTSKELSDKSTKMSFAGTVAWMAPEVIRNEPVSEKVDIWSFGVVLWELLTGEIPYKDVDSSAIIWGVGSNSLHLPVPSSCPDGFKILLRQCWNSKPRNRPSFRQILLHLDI
How it was run: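 Human DLK activity measured as phosphorylation of His-tagged MKK7 at T275/S277, detected by TR-FRET between Eu-anti-phospho-MKK7 donor (excitation 340 nm) and XL665-anti-His acceptor (665 nm). Signal taken as the XL665/Eu ratio. Detection buffer: 25 mM Tris/HCl pH 7.5, 100 mM EDTA, 100 mM NaCl, 200 mM KF, 0.01% Tween 20.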

[2] = biological target: T2, LZK (Homo sapiens, UniProt O43283); experiment: LZK biochemical assay (TR-FRET, MKK7 phosphorylation); conditions: LZK catalytic domain, MKK7 substrate, 15 μM ATP
T2 construct: 10 nM LZK, catalytic domain, Carna Biosiences in assay buffer; purchased Carna Biosciences ('Carna Biosiences' [sic])
T2 sequence (O43283 168-409 limits assumed): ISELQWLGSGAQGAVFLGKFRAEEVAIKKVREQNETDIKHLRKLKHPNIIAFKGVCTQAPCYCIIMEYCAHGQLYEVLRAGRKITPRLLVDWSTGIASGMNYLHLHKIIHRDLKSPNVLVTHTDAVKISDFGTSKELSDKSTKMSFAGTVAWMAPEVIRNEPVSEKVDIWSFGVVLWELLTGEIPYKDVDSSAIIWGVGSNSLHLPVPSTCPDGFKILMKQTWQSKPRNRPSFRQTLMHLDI

| Structure (SMILES) | IC50 [1] [nM] | IC50 [2] [nM] |
| --- | --- | --- |
| C[C@@H](CF)NC(=O)c1cc(-c2cnn(C3CCOc4ccccc43)c2)cn2nc(N)nc12 (mixture of isomers) [Example I-143, 2-Amino-6-{1-[3,4-dihydro-2H-1-benzopyran-4-yl]-1H-pyrazol-4-yl}-N-[1-fluoropropan-2-yl][1,2,4]triazolo[1,5-a]pyridine-8-carboxamide] | 33 | 15 |
| Nc1nc2cc(-c3cnn(C4CCOCC4)c3)cc(C(=O)N[C@H]3CCOC3)n2n1 (single isomer, unassigned) [Example I-176] | 220 | 210 |
| CCC(c1ccc(Cl)s1)n1cc(-c2cc(C(=O)N[C@@H](C)CC)c3nc(N)nn3c2)cn1 (single isomer, unassigned) [Example I-130] | 53 | 100 |
| CC[C@H](C)NC(=O)c1cc(-c2cnn(C(c3ccccc3)C3CCC3)c2)cn2nc(N)nc12 (mixture of isomers) [Example I-27, 2-Amino-N-[(2S)-butan-2-yl]-6-{1-[cyclobutyl(phenyl)methyl]-1H-pyrazol-4-yl}[1,2,4]triazolo[1,5-a]pyridine-8-carboxamide] | 7.7 | 390 |
| CC(C)(CO)NC(=O)c1cc(-c2cnn(C(c3ccc(C(F)(F)F)nc3)C3CCOCC3)c2)cn2nc(N)nc12 (racemic) [Example I-166, 2-Amino-N-(1-hydroxy-2-methylpropan-2-yl)-6-(1-{tetrahydro-2H-pyran-4-yl[6-(trifluoromethyl)pyridin-3-yl]methyl}-1H-pyrazol-4-yl)[1,2,4]triazolo[1,5-a]pyridine-8-carboxamide] | 4.2 | 20 |
| CCC(c1ccc(C(F)(F)F)nc1)n1cc(-c2cc(C(=O)NC(C)(C)CO)c3nc(N)nn3c2)cn1 (racemic) [Example I-163, 2-Amino-N-(1-hydroxy-2-methylpropan-2-yl)-6-(1-{1-[6-(trifluoromethyl)pyridin-3-yl]propyl}-1H-pyrazol-4-yl)[1,2,4]triazolo[1,5-a]pyridine-8-carboxamide] | 7.6 | 30 |
| Nc1nc2cc(-c3cnn(C(c4ccc(C(F)(F)F)nc4)C4CCOCC4)c3)cc(C(=O)N[C@H]3CCOC3)n2n1 (single isomer, unassigned) [Example I-184] | 13 | 22 |
| CCC(c1ccc(F)cn1)n1cc(-c2cc(C(=O)N[C@@H](C)CC)c3nc(N)nn3c2)cn1 (mixture of isomers) [Example I-55, 2-Amino-N-[(2S)-butan-2-yl]-6-{1-[1-(5-fluoropyridin-2-yl)propyl]-1H-pyrazol-4-yl}[1,2,4]triazolo[1,5-a]pyridine-8-carboxamide] | 6.7 | 49 |
| CC[C@H](C)NC(=O)c1cc(-c2cnn(C(c3ccccc3)C3CC(F)(F)C3)c2)cn2nc(N)nc12 (single isomer, unassigned) [Example I-32] | 56 | 180 |
| CCC(c1ccc(OCC(F)(F)F)nc1)n1cc(-c2cc(C(=O)N[C@@H](C)CC)c3nc(N)nn3c2)cn1 (mixture of isomers) [Example I-85, 2-Amino-N-[(2S)-butan-2-yl]-6-(1-{1-[6-(2,2,2-trifluoroethoxy)pyridin-3-yl]propyl}-1H-pyrazol-4-yl)[1,2,4]triazolo[1,5-a]pyridine-8-carboxamide] | 4.7 | 38 |
| CC(CF)NC(=O)c1cc(-c2cnn(Cc3cccc4cn[nH]c34)c2)cn2nc(N)nc12 (racemic) [Example I-138, 2-Amino-N-(1-fluoropropan-2-yl)-6-{1-[(1H-indazol-7-yl)methyl]-1H-pyrazol-4-yl} [1,2,4]triazolo[1,5-a]pyridine-8-carboxamide] | 3 | 190 |

Now those with a lower IC50 [1], led by results:

| IC50 [1] [nM] | IC50 [2] [nM] | Structure (SMILES) |
| --- | --- | --- |
| 2.9 | 66 | CC[C@H](C)NC(=O)c1cc(-c2cnn(C(c3ccc(F)cc3)C(C)C)c2)cn2nc(N)nc12 (mixture of isomers) [Example I-43, 2-Amino-N-[(2S)-butan-2-yl]-6-{1-[1-(4-fluorophenyl)-2-methylpropyl]-1H-pyrazol-4-yl}[1,2,4]triazolo[1,5-a]pyridine-8-carboxamide] |
| 2.9 | 15 | CC[C@H](C)NC(=O)c1cc(-c2cnn(C(c3ccnc(C(F)(F)F)c3)C(C)C)c2)cn2nc(N)nc12 (mixture of isomers) [Example I-91, 2-Amino-N-[(2S)-butan-2-yl]-6-(1-{2-methyl-1-[2-(trifluoromethyl)pyridin-4-yl]propyl}-1H-pyrazol-4-yl)[1,2,4]triazolo[1,5-a]pyridine-8-carboxamide] |
| 2.7 | 23 | CC[C@H](C)NC(=O)c1cc(-c2cnn(C(c3ccccc3)C(C)C)c2)cc2nc(N)nn12 (mixture of isomers) [Example I-24, 2-Amino-N-[(2S)-butan-2-yl]-7-{1-[2-methyl-1-phenylpropyl]-1H-pyrazol-4-yl}[1,2,4]triazolo[1,5-a]pyridine-5-carboxamide] |
| 2 | 49 | CC(C)C(c1cncc(Cl)c1)n1cc(-c2cc(C(=O)NC(C)(C)CO)c3nc(N)nn3c2)cn1 (single isomer, unassigned) [Example I-173, 2-Amino-6-{1-[1-(5-chloropyridin-3-yl)-2-methylpropyl]-1H-pyrazol-4-yl}-N-(1-hydroxy-2-methylpropan-2-yl)[1,2,4]triazolo[1,5-a]pyridine-8-carboxamide] |
| 1.6 | 25 | CC[C@H](C)NC(=O)c1cc(-c2cnn(Cc3cccc4cn[nH]c34)c2)cc2nc(N)nn12 (single isomer, unassigned) [Example I-50] |
| 1.5 | 8.9 | CC(C)(CO)NC(=O)c1cc(-c2cnn(C(c3ccc(C(F)(F)F)nc3)C3CCOCC3)c2)cn2nc(N)nc12 (single isomer, unassigned) [Example I-168, 2-Amino-N-(1-hydroxy-2-methylpropan-2-yl)-6-(1-{tetrahydro-2H-pyran-4-yl[6-(trifluoromethyl)pyridin-3-yl]methyl}-1H-pyrazol-4-yl)[1,2,4]triazolo[1,5-a]pyridine-8-carboxamide] |
| 1.3 | 2.9 | CC[C@H](C)NC(=O)c1cc(-c2cnn(C(c3ccc(C(F)(F)F)nc3)C(C)C)c2)cc2nc(N)nn12 (mixture of isomers) [Example I-104, 2-Amino-N-[(2S)-butan-2-yl]-7-(1-{2-methyl-1-[6-(trifluoromethyl)pyridin-3-yl]propyl}-1H-pyrazol-4-yl)[1,2,4]triazolo[1,5-a]pyridine-5-carboxamide] |
| 1.1 | 4.6 | C[C@@H](CO)NC(=O)c1cc(-c2cnn(C(c3ccc(C(F)(F)F)nc3)C3CCOCC3)c2)cn2nc(N)nc12 (mixture of isomers) [Example I-154, 2-Amino-N-[(25)-1-hydroxypropan-2-yl]-6-(1-{tetrahydro-2H-pyran-4-yl[6-(trifluoromethyl)pyridin-3-yl]methyl}-1H-pyrazol-4-yl)[1,2,4]triazolo[1,5-a]pyridine-8-carboxamide] |
| 1 | 3.9 | CC[C@H](C)NC(=O)c1cc(-c2cnn(C(c3ccc(C(F)F)nc3)C(C)C)c2)cn2nc(N)nc12 (single isomer, unassigned) [Example I-69] |
| 0.7 | 3.9 | C[C@@H](CO)NC(=O)c1cc(-c2cnn([C@H](c3ccc(C(F)(F)F)nc3)C3CCOCC3)c2)cn2nc(N)nc12 (single isomer, unassigned) [Example I-155, 2-Amino-N-[(25)-1-hydroxypropan-2-yl]-6-(1-{tetrahydro-2H-pyran-4-yl[6-(trifluoromethyl)pyridin-3-yl]methyl}-1H-pyrazol-4-yl)[1,2,4]triazolo[1,5-a]pyridine-8-carboxamide] |
| 0.7 | 5.6 | CC[C@H](C)NC(=O)c1cc(-c2cnn(C(c3ccccc3)C3CCOCC3)c2)cc2nc(N)nn12 (single isomer, unassigned) [Example I-52] |
| 0.5 | 32 | CC(CF)NC(=O)c1cc(-c2cnn(C(c3ccccc3)C(C)C)c2)cn2nc(N)nc12 (single isomer, unassigned) [Example I-140, 2-Amino-N-(1-fluoropropan-2-yl)-6-[1-(2-methyl-1-phenylpropyl)-1H-pyrazol-4-yl][1,2,4]triazolo[1,5-a]pyridine-8-carboxamide] |
| 0.5 | 1.4 | CC[C@H](C)NC(=O)c1cc(-c2cnn(C(c3ccc(C(F)(F)F)nc3)C3CCOCC3)c2)cc2nc(N)nn12 (single isomer, unassigned) [Example I-111] |
| 0.2 | 1.3 | CC[C@H](C)NC(=O)c1cc(-c2cnn(C(c3ccnc(OC)c3)C(C)C)c2)cc2nc(N)nn12 (mixture of isomers) [Example I-126, 2-Amino-N-[(2S)-butan-2-yl]-7-{1-[1-(2-methoxypyridin-4-yl)-2-methylpropyl]-1H-pyrazol-4-yl}[1,2,4]triazolo[1,5-a]pyridine-5-carboxamide] |
